In article PMC8498988, “Scaffold Hybridization Strategy Leads to the Discovery of Dopamine D3 Receptor-Selective or Multitarget Bitopic Ligands Potentially Useful for Central Nervous System Disorders” (ACS Chemical Neuroscience, 2021):

Target: D3R (Homo sapiens, UniProt P35462)
Experiment: Radioligand competition binding at human D3R ([3H]N-methylspiperone, HEK293 membranes)
Set-up: expressed in transfected cells; host or cells: HEK293
Settings: selectivity

D3R, sequence (P35462 whole entry): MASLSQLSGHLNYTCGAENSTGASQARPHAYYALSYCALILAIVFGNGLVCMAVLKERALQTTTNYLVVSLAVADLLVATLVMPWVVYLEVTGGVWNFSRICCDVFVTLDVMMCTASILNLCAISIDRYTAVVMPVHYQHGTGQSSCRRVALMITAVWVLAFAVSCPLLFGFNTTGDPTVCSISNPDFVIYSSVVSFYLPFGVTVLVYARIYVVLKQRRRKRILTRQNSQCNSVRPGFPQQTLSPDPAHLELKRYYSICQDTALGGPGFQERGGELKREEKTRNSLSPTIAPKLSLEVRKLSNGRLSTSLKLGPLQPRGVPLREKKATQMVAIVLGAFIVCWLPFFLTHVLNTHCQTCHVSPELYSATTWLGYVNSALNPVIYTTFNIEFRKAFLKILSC

O=C(NCCCCN1CCN(c2cccc(Cl)c2Cl)CC1)C1COCC(c2ccccc2)(c2ccccc2)O1 (stereo not shown) [compound 3, N-(4-(4-(2,3-Dichlorophenyl)piperazin-1-yl)butyl)-6,6-diphenyl-1,4-dioxane-2-carboxamide]
5-HT1A/D3 (ratio of Ki values 5-HT1AR/D3R): 121
5-HT2A/D3 (ratio of Ki values 5-HT2AR/D3R): 108
5-HT2C/D3 (ratio of Ki values 5-HT2CR/D3R): 269
D1/D3 (ratio of Ki values D1R/D3R): 185
